Molecular target: T1, sortase A (SrtA) (Staphylococcus aureus, UniProt Q2FV99)
T1 construct: recombinant SrtAΔN59
Assay: FRET peptide-cleavage assay with purified recombinant SrtA; supported by fluorescence quenching (Ka = […] L/mol) and reversibility by dilution
Assay type: biochemical

T1 sequence (Q2FV99 60-206): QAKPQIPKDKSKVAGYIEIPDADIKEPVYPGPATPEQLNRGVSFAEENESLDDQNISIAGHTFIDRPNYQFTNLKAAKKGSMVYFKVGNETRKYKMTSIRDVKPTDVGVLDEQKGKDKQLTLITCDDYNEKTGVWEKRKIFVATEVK

## O=C(/C=C/c1ccc(O)cc1)c1ccc(O)cc1O [ISL, isoliquiritigenin]
  IC50: 52.1 µM

— PMC12660299, “Isoliquiritigenin Attenuates Staphylococcus aureus Adhesion and Invasion to Counteract Staphylococcus aureus Pathogenicity and Infection” (Frontiers in Cellular and Infection Microbiology, 2025)
